Reference: ChEMBL document CHEMBL1201862, “PubChem BioAssay data set” (2004)
Activity calls are given as the source filed them. Cut-off read from the data, not from the text of the source, for most assays here: actives have a measured EC50 and inactives only a lower limit.

Experiments:
H4 = assay: Luminescence Cell-Based Dose Response HTS to Identify Activators of 5'UTR Stem-Loop Driven Prion Protein mRNA Translation in H4 Neuroglioblastoma Cells. [Related pubchem assays: 1829 (Project Summary), 1814 (Primary HTS)]; type: functional; settings: Homo sapiens
[1] = Luminescence Cell-Based Dose Response HTS to Identify Activators of Luciferase Translation or Activity in H4 […] Cells. [Related pubchem assays: 1829 (Project Summary), 1814 (Primary HTS)]; type: functional
[2] = target: T1, Corticotropin-releasing factor receptor 2/Corticotropin-releasing factor-binding protein (Homo sapiens, UniProt P24387+Q13324); assay: activators of CRF receptor 2 with binding protein – uHTS hits, confirmation (AID 602473); type: functional; settings: read-out: EC50_Mean
T1 sequence (Q13324 whole entry): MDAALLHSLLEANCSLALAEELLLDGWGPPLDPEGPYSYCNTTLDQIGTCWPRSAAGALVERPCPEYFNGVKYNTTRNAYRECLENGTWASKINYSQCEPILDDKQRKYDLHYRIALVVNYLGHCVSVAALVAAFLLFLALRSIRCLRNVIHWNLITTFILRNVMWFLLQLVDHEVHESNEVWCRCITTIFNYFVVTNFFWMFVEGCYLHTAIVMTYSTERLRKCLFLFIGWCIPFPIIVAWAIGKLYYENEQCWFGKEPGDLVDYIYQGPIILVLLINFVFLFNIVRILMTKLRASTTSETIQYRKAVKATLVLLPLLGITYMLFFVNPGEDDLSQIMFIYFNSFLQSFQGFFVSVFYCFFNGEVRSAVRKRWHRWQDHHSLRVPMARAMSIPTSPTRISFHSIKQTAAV
T1 sequence (P24387 whole entry): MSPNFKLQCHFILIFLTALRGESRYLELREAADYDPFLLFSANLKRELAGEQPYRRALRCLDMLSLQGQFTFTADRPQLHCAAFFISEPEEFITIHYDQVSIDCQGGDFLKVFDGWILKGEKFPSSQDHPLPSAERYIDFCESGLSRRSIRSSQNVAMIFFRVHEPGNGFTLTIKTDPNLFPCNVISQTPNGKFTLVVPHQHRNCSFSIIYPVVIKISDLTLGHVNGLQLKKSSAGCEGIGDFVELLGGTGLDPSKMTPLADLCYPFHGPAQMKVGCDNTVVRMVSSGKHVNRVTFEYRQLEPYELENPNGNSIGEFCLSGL

[3] = target: T2, Heat shock factor protein 1 (Mus musculus, UniProt P38532); assay: HSF1 potentiators in luciferase reporter cells, confirmation, cell-based, NIH3T3, luminescence, dose retest (AID 435004); type: functional;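 note: stress induced by proteasome inhibitor MG132 added 30 min after compound; luciferase reporter driven by HSF1 response element in NIH3T3 cells; actives raise luminescence as potentiators of the MG132 stress response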
T2 sequence (P38532 whole entry): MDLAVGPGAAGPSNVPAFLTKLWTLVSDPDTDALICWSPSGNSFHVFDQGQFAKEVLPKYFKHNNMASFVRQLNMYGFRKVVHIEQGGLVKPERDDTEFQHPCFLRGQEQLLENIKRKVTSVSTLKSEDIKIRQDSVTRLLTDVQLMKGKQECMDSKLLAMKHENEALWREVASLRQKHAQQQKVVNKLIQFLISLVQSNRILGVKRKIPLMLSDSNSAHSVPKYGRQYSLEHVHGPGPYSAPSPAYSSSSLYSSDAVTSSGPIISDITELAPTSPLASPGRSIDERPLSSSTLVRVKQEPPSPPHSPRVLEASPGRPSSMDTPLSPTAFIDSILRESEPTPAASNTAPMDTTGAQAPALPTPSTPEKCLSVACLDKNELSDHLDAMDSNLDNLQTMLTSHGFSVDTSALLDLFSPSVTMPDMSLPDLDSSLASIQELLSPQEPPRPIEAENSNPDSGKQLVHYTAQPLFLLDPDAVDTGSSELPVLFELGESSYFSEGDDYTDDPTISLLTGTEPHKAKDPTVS

cells [4] = type: functional, cell-based
cells [5] = type: functional, cell-based; remark: listed apart in the source
Genome polyprotein = Genome polyprotein (dengue virus type 2, UniProt P29990); assay: Dengue-2 NS5 methyltransferase inhibitors, primary screen, biochemical, confirmation dose response (AID 588689); type: functional
Paired box protein Pax-8 = Paired box protein Pax-8 (Homo sapiens, UniProt Q06710); assay: inhibitors of PAX8-driven TPO luciferase reporter, dose response, RMG-I cells, cherry-pick (AID 687027); type: functional, cell-based;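 note: luciferase reporter driven by Pax8 target thyroperoxidase promoter measured by SteadyGlo luminescence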
[6] = target: T3, Rac GTPase-activating protein 1 (Homo sapiens, UniProt Q9H0H5); assay: MgcRacGAP GTPase-activating activity inhibitors, confirmation, biochemical, ADP Hunter fluorescence, primary and confirmatory (AID 624330); type: functional
T3 sequence (Q9H0H5 whole entry): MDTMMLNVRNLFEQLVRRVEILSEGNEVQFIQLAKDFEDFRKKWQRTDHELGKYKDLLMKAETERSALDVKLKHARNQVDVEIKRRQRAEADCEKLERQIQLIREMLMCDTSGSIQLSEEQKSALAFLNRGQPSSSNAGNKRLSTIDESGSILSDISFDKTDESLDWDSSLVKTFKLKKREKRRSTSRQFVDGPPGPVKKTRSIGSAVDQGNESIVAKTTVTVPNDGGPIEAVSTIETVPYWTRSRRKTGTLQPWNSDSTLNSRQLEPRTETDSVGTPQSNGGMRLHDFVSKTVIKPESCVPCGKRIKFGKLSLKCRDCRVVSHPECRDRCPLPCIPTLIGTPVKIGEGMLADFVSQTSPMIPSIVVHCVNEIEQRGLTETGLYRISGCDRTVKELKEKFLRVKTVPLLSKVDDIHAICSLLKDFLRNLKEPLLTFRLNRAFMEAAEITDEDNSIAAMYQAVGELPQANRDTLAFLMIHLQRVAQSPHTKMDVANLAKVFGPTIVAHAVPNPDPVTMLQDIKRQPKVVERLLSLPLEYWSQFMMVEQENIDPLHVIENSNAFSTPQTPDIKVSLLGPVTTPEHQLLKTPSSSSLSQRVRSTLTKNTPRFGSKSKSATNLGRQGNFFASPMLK

Protein skinhead-1 = target: T4, Protein skinhead-1 (Caenorhabditis elegans, UniProt P34707); type: functional
T4 sequence (P34707 whole entry): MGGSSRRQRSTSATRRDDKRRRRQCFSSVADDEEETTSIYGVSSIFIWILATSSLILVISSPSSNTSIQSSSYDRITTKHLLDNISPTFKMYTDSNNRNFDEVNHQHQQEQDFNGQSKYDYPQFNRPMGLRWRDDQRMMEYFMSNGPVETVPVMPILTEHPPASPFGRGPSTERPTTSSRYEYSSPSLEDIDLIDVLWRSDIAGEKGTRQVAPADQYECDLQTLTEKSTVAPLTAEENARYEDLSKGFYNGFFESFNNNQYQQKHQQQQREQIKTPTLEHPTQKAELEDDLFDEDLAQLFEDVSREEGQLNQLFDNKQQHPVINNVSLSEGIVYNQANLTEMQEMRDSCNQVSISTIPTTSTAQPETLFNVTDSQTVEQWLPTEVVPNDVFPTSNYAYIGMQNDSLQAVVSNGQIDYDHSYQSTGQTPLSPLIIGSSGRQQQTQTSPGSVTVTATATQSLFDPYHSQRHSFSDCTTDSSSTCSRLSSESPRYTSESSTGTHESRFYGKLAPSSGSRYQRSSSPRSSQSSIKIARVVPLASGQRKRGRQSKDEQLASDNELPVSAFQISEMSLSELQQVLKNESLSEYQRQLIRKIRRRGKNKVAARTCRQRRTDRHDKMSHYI

Streptococcus = assay: Group A Streptococcus viability loss, dose response, counter-screen for streptokinase expression inhibitor project, luminescence, BacTiterGlo (AID 1915); type: functional, organism-based;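 note: potency for reduction of bacterial viability or growth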
[7] = system: Streptococcus sp. 'group A'; assay: growth inhibition of control SK(-) GAS strain, dose response, counter-screen for streptokinase expression inhibitor project, luminescence, kanamycin, BacTiterGlo, confirmation (AID 1900); type: functional, organism-based
Streptokinase A = target: T5, Streptokinase A (Streptococcus pyogenes serotype M1, UniProt P10520); assay: S. pyogenes streptokinase expression inhibitors, potency, dose response, plasminogen activation absorbance, OD405 (AID 1914); type: functional, Streptococcus pyogenes M1 GAS;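 note: secreted streptokinase activity via plasminogen activation per viability signal from cell pellet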
T5 sequence (P10520 whole entry): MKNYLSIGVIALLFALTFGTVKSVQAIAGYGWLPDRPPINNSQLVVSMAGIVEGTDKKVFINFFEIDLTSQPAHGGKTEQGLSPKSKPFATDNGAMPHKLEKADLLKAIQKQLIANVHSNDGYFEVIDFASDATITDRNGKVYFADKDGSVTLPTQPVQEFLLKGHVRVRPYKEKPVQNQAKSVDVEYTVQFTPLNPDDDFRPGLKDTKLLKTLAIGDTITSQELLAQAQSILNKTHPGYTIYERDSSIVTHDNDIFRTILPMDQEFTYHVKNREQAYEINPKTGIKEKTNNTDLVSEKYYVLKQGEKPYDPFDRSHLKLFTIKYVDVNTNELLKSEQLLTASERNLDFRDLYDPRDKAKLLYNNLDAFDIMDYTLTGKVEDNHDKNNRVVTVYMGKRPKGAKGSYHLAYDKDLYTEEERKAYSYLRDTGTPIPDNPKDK

INS1 = assay: beta cell apoptosis inhibitors, cytokine rescue, dose response, luminescence, retest (AID 449756); type: functional, cell-based; settings: Rattus norvegicus;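 note: cell death triggered by IL-1 beta plus TNF-alpha plus IFN-gamma mixture; protective hits raise ATP signal compared with cytokine alone wells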
[8] = control 3'UTR Renilla luciferase suppression, dose response, counter-screen for Shn3 inhibitor project, cell-based, Clone20-Shn3RL, cherry-picked (AID 624133); type: functional
[9] = HEp-2 cell cytotoxicity, dose response, cytotoxicity control for RSV inhibitor project, HTS (AID 2410); type: functional; settings: human respiratory syncytial virus

Sequence of Genome polyprotein (P29990 2492-3391 limits assumed): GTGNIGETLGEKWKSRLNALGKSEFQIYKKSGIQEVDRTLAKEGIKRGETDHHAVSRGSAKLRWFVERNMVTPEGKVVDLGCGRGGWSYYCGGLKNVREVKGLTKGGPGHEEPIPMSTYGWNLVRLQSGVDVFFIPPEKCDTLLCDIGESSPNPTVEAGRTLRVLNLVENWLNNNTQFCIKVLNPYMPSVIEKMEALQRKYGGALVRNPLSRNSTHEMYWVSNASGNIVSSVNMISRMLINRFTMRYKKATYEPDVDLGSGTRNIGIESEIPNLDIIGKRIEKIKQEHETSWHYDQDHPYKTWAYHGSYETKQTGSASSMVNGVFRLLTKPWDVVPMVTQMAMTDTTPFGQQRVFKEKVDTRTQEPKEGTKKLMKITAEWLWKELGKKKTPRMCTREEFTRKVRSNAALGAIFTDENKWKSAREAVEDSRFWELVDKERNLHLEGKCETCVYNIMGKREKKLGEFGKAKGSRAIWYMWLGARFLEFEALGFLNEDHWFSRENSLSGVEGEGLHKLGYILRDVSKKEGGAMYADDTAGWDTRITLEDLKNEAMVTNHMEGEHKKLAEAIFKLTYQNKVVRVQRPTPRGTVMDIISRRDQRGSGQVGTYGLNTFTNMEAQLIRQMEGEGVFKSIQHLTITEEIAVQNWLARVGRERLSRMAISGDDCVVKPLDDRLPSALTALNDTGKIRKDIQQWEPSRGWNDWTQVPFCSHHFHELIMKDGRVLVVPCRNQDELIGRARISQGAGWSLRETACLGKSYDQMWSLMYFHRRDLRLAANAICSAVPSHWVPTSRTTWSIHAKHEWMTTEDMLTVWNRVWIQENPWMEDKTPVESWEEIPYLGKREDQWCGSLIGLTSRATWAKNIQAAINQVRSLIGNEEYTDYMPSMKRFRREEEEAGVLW
Sequence of Paired box protein Pax-8 (Q06710 whole entry): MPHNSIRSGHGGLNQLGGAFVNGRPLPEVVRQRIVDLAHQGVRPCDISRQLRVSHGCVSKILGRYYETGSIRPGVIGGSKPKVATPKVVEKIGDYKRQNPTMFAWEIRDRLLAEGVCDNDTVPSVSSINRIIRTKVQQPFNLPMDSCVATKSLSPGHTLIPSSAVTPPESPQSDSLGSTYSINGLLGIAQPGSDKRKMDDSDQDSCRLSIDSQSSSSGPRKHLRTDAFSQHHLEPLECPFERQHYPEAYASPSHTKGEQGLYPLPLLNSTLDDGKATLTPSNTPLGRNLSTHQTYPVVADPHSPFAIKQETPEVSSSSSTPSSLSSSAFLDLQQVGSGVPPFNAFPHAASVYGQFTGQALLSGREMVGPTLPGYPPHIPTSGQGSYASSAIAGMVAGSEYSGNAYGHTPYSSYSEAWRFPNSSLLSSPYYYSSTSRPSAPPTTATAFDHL

O=C(Nc1ccc(Cl)c(Cl)c1)c1ccc(Cn2cc(Cl)cn2)cc1
EC50 (H4): > 120 µM (not active)
EC50 [1]: 38.1 µM (active)

Cc1cc(C=C(C#N)C#N)ccc1N1CCCC1
EC50 [2]: 6.3 µM (active)

CC(=O)c1c(C)[nH]c(C(=O)Nc2cccc(C)n2)c1C
EC50 [3]: > 260 µM (inactive)

COc1ccc2nc(NC3=NCCN3)sc2c1
EC50 (H4): 2.01 µM (active)
EC50 [1]: 0.778 µM (active)

O=C1C2CCCCC2C(=O)N1Cc1ccccc1 (stereo not drawn)
EC50 [3]: > 260 µM (inactive)

CC(C)CC(NS(=O)(=O)c1ccc2c(c1)oc(=O)n2C)C(=O)NC1CCCc2ccccc21 (stereo not drawn)
EC50 [3]: > 260 µM (inactive)

O=C(NNC(=O)c1ccccc1Br)c1ccc(Cl)cc1
EC50 (cells [4]): > 350 µM (not active)
EC50 (cells [5]): > 350 µM (not active)

COC(=O)C1CCN(C(=O)Cc2c(OC)ccc3cc(Br)ccc23)CC1
EC50 [3]: 68.2 µM (active)

CS(=O)(=O)c1ccc2nc(NC(=O)C3CC3)sc2c1
EC50 (cells [4]): > 350 µM (not active)
EC50 (cells [5]): > 350 µM (not active)

O=C1NC(=O)C(=Cc2ccc(N3CCN(C(=O)c4ccccc4)CC3)c([N+](=O)[O-])c2)C(=O)N1
IC50 (Genome polyprotein): 19.8 µM (active)

O=C(C1=C[C@@H](C2CC2)C[C@@H](OCc2ccc(CO)cc2)O1)N1CCN(Cc2ccccc2)CC1
EC50 [3]: > 260 µM (inactive)

CCCCCCc1cc2cc(C(=O)NC)c(=N)oc2cc1O
EC50 [2]: 3.06 µM (active)

COc1cc(C2c3cc4c(c(O)c3CC3COC(=O)C32)OCO4)cc(OC)c1OC (stereo not drawn)
AC50 (Paired box protein Pax-8): < 0.26 µM (active)

COc1ccc(C2(C)NC(=O)N(CC3CCCCC3)C2=O)cc1 (stereo not drawn)
EC50 [3]: > 260 µM (inactive)

O=C1NC(=O)C(=Cc2coc3ccc(O)cc3c2=O)C(=O)N1
IC50 [6]: 150 µM (active)
IC50 (Genome polyprotein): > 100 µM (active)

CCOc1ccccc1NC(=O)CSc1ncnc2c1oc1ccccc12
IC50 (Protein skinhead-1): > 100 µM (inactive)
EC50 (cells [4]): > 350 µM (not active)
EC50 (cells [5]): > 350 µM (not active)

CCC(Oc1ccccc1)C(=O)Nc1ccccc1N1CCCCC1 (stereo not drawn)
EC50 (Streptococcus): 19.9 µM (active)
EC50 [7]: 10.3 µM (active)
EC50 (Streptokinase A): 15.8 µM (active)

Cc1ccccc1-c1cc(=O)c2c(O)cccc2o1
EC50 [3]: > 260 µM (inactive)

COc1cc(/C=C2/C(=O)NN(c3ccc(F)cc3)C2=O)cc([N+](=O)[O-])c1O
IC50 (Genome polyprotein): > 100 µM (active)

Cc1ccc(-c2nnn(CC(=O)N(Cc3cccs3)C(C(=O)NC3CCCCC3)c3ccco3)n2)o1 (stereo not drawn)
EC50 (cells [4]): > 350 µM (not active)
EC50 (cells [5]): > 350 µM (not active)

COc1cc(C2NC(=O)NC(C)=C2C(=O)OC2CCCCC2)cc(Cl)c1O (stereo not drawn)
EC50 [3]: > 260 µM (inactive)

CCOc1ccc2nc(NC(=O)c3cccc(-c4cc5ccccc5oc4=O)c3)sc2c1
AC50 (INS1): 3.24 µM (active)

COc1ccc(/C=C/C(=O)OC2CCCN(C)C2)cc1 (stereo not drawn)
EC50 [3]: > 260 µM (inactive)

CCOC(=O)CC1NCCc2c1[nH]c1ccc(OC)cc21 (stereo not drawn)
EC50 [3]: > 260 µM (inactive)

COc1ccccc1-c1ccc(SCC(=O)Nc2cc(C)on2)nn1
EC50 [3]: > 260 µM (inactive)

Cc1cc(C(=O)C(C)OC(=O)c2ccc(NC(=O)CC#N)cc2)c(C)n1-c1ccc(OC(F)F)cc1 (stereo not drawn)
AC50 (INS1): 4.26 µM (active)

Cc1noc(NS(=O)(=O)c2ccc(NC(=O)c3ccccc3NS(=O)(=O)c3ccc(F)c(F)c3)cc2)c1C
IC50 (Genome polyprotein): 33.2 µM (active)

COc1ccc(S(=O)(=O)NCCC(=O)OCC(=O)NC2CC2)cc1
AC50 [8]: 33.7 µM (active)

C=CCN1C(=O)/C(=C/c2ccc(O)cc2)S/C1=N/c1nccs1
EC50 [2]: > 53 µM (inactive)
CC50 [9]: 22.4 µM (active)

O=C(Nc1ccc(F)cc1)N1CCCCN2[C@@H](CO)[C@@H](c3ccc(-c4cccc(F)c4)cc3)[C@@H]2C1
AC50 (Paired box protein Pax-8): 21.3 µM (active)

CC1=C(C(=O)O)N2C(=O)C(NC(=O)Cc3ccccc3)C2SC1 (stereo not drawn)
EC50 (Streptococcus): 2.68 µM (active)
EC50 [7]: 1.22 µM (active)
EC50 (Streptokinase A): > 150 µM (not active)

C/C(=N\NC(=O)c1ccoc1C)c1ccccc1O
AC50 (INS1): 3.12 µM (active)

Cc1ccsc1C(=O)N/N=C/c1ccc([N+](=O)[O-])cc1
EC50 (cells [4]): > 350 µM (not active)
EC50 (cells [5]): 5.99 µM (active)

CO/N=C/c1cc([N+](=O)[O-])ccc1Sc1ccc(C)cc1
EC50 [3]: > 260 µM (inactive)
